Measurements from the NIST ThermoML archive (doi:10.1021/acs.jced.7b00381).

Conditions: Fluid (supercritical or subcritical phases), isochoric method

FC(F)(F)/C=C/C(F)(F)F [trans-1,1,1,4,4,4-hexafluoro-2-butene]
Conditions	mass density [kg/m3]
323.43 K, 579.7 kPa	1212.1
333.44 K, 5332.4 kPa	1210.9
333.46 K, 1305.2 kPa	1180.7
343.44 K, 10088 kPa	1209.8
343.45 K, 5602.3 kPa	1179.6
353.44 K, 1232.2 kPa	1093.7
353.44 K, 4087.2 kPa	1128.3
353.46 K, 9911.4 kPa	1178.4
363.43 K, 7766.9 kPa	1127.2
363.44 K, 4495.7 kPa	1092.6
363.45 K, 2343 kPa	1061.2
373.43 K, 1203.4 kPa	83.9
373.43 K, 1779.9 kPa	991.3
373.44 K, 7789.6 kPa	1091.5
373.46 K, 5302.7 kPa	1060.2
383.41 K, 1661.4 kPa	129.2
383.43 K, 2410.5 kPa	940.3
383.44 K, 1263 kPa	83.9
383.44 K, 4128.8 kPa	990.3
383.46 K, 8290.7 kPa	1059.2
393.42 K, 1764.3 kPa	129.1
393.44 K, 1320.8 kPa	83.8
393.44 K, 6524 kPa	989.3
393.45 K, 2531 kPa	848.7
393.45 K, 4410.6 kPa	939.4
403.43 K, 1863.4 kPa	128.9
403.43 K, 2784.5 kPa	594.5
403.43 K, 3331.6 kPa	794.2
403.44 K, 1377.2 kPa	83.7
403.44 K, 2465.8 kPa	220.8
403.44 K, 2774.4 kPa	460.7
403.44 K, 2774.7 kPa	402.7
403.44 K, 2776.5 kPa	535.5
403.44 K, 4004.8 kPa	847.9
403.44 K, 8946 kPa	988.4
403.45 K, 2727.9 kPa	325
403.45 K, 2855.7 kPa	688.4
403.45 K, 3069.1 kPa	755.5
403.45 K, 6453.8 kPa	938.5
413.42 K, 1959.4 kPa	128.8
413.42 K, 3461.5 kPa	594
413.43 K, 3371.4 kPa	535
413.43 K, 4600.2 kPa	793.4
413.43 K, 5530.3 kPa	847.1
413.44 K, 1432.9 kPa	83.6
413.44 K, 2664.9 kPa	220.6
413.44 K, 3213.6 kPa	402.3
413.44 K, 3284.4 kPa	460.2
413.44 K, 8521.8 kPa	937.6
413.45 K, 3064.7 kPa	324.7
413.45 K, 4177.9 kPa	754.8
413.46 K, 3739.9 kPa	687.7
423.42 K, 2053.6 kPa	128.7
423.42 K, 3980.8 kPa	534.4
423.42 K, 4173.8 kPa	593.4
423.43 K, 1487.5 kPa	83.5
423.43 K, 3786.7 kPa	459.8
423.43 K, 5906.9 kPa	792.7
423.44 K, 7088.7 kPa	846.2
423.45 K, 2857.2 kPa	220.3
423.45 K, 3387.7 kPa	324.4
423.45 K, 3637.3 kPa	402
423.45 K, 5329 kPa	754
423.46 K, 4672.9 kPa	687
433.42 K, 2146.1 kPa	128.6
433.42 K, 4598 kPa	533.9
433.42 K, 4900.8 kPa	592.8
433.43 K, 1541.9 kPa	83.4
433.43 K, 4284.4 kPa	459.3
433.43 K, 4286.7 kPa	459.3
433.43 K, 8666.9 kPa	845.4
433.44 K, 3703.4 kPa	324.1
433.44 K, 7237.5 kPa	791.9
433.45 K, 3045.2 kPa	220.1
433.45 K, 4055.4 kPa	401.6
433.45 K, 5628.3 kPa	686.4
433.45 K, 6506.9 kPa	753.3
443.42 K, 1595.5 kPa	83.4
443.42 K, 5218.7 kPa	533.4
443.42 K, 5638.1 kPa	592.3
443.43 K, 2237.3 kPa	128.4
443.43 K, 4783.2 kPa	458.9
443.44 K, 4469 kPa	401.2
443.44 K, 7698.7 kPa	752.6
443.44 K, 8584 kPa	791.1
443.45 K, 3230.1 kPa	219.9
443.45 K, 4013.8 kPa	323.8
443.45 K, 6600.4 kPa	685.7
453.42 K, 2327.6 kPa	128.3
453.42 K, 5843.1 kPa	532.9
453.42 K, 6380.9 kPa	591.7
453.43 K, 1648.3 kPa	83.3
453.44 K, 4319.3 kPa	323.4
453.44 K, 5280.1 kPa	458.5
453.44 K, 9941.5 kPa	790.4
453.45 K, 3412.1 kPa	219.7
453.46 K, 4880.1 kPa	400.8
453.46 K, 7584.8 kPa	685
453.46 K, 8905 kPa	751.8
463.42 K, 1700 kPa	83.2
463.42 K, 7127.1 kPa	591.1
463.44 K, 2415.5 kPa	128.2
463.44 K, 6468.5 kPa	532.4
463.45 K, 5285.9 kPa	400.4
463.45 K, 10115 kPa	751.1
463.46 K, 3590.1 kPa	219.5
463.46 K, 4621.8 kPa	323.1
463.46 K, 5775.9 kPa	458
463.47 K, 8574.6 kPa	684.4
473.43 K, 7093.2 kPa	531.9
473.43 K, 7877 kPa	590.5
473.44 K, 1751.3 kPa	83.1
473.45 K, 3766 kPa	219.3
473.45 K, 4919.9 kPa	322.8
473.45 K, 5690.2 kPa	400
473.45 K, 6269.7 kPa	457.6
473.46 K, 2503.4 kPa	128.1
473.46 K, 9568.9 kPa	683.7
483.43 K, 7718.7 kPa	531.4
483.44 K, 6093 kPa	399.6
483.44 K, 6761.7 kPa	457.1
483.44 K, 8628.9 kPa	590
483.45 K, 1803.6 kPa	83
483.45 K, 5216.5 kPa	322.5
483.46 K, 2590.8 kPa	128
483.46 K, 3941.1 kPa	219.1
493.42 K, 8344.4 kPa	530.8
493.43 K, 2677.3 kPa	127.8
493.44 K, 9378.9 kPa	589.4
493.45 K, 1854.7 kPa	83
493.46 K, 5509.7 kPa	322.2
493.46 K, 6493.6 kPa	399.3
493.46 K, 7253 kPa	456.7
493.47 K, 4117.6 kPa	218.9
503.44 K, 2763.1 kPa	127.7
503.44 K, 8968.2 kPa	530.3
503.45 K, 1906.1 kPa	82.9
503.45 K, 7742.3 kPa	456.3
503.45 K, 10130 kPa	588.8
503.46 K, 6891.7 kPa	398.9
503.47 K, 4290.5 kPa	218.7
503.47 K, 5802.6 kPa	321.9
513.42 K, 2848.4 kPa	127.6
513.42 K, 8228 kPa	455.8
513.43 K, 9591.2 kPa	529.8
513.44 K, 1956.7 kPa	82.8
513.46 K, 4460.3 kPa	218.4
513.46 K, 7287.8 kPa	398.5
513.47 K, 6092.7 kPa	321.6
523.41 K, 2933.2 kPa	127.5
523.41 K, 8713.2 kPa	455.4
523.44 K, 6379.8 kPa	321.3
523.44 K, 10213 kPa	529.3
523.45 K, 2008.3 kPa	82.7
523.45 K, 7680.8 kPa	398.1
523.46 K, 4629.7 kPa	218.2
